Values after ≈ are worked out from the molar mass of the structure shown. Read-outs that look alike come from different tables or passages of the source.
Legend:
ACC2 = ACC2 isolated from rat, mouse, monkey and human; cited from earlier work
ACC1 = ACC1 isolated from rat, mouse, monkey and human; cited from earlier work
Candida glabrata = assay: In vitro antifungal assay (broth microdilution, Micromyx), C. glabrata; assay type: cell-based; settings: Nakaseomyces glabratus, ATCC90030, strain 0635 ATCC 90030, 35° C., approximately 24-48 hr
Description: (§1) Compounds of the present invention were also assayed in an in vitro antifungal assay against Candida glabrata, Candida tropicalis, and Aspergillus fumigatus, performed by Micromyx, a representative procedure of which follows. The test organisms were reference strains acquired from the American Type Culture Collection (ATCC). Upon receipt, the isolates were streaked onto Sabouraud Dextrose Agar (SDA). Colonies were harvested from these plates and a cell suspension was prepared in Sabouraud Dextrose Broth (Becton Dickinson, Sparks, Md.) containing cryoprotectant. Aliquots were then frozen at −80° C. Prior to the assay, the frozen seeds of all yeast isolates to be tested in that session were thawed and streaked for isolation onto SDA and incubated overnight at 35° C. All fungal isolates were previously streaked on SDA and incubated at 35° C. until spore formation occurred, followed by harvesting of the spores in sterile 0.85% saline and enumeration. The spore preps were stored at 4° C. Yeast and fungal isolates were tested in RPMI medium (Catalog No. SH30011.04; Lot No. AYB60287A; HyClone Labs, Logan, Utah) buffered with 0.165 M MOPS (Catalog No. 475898; Lot No. D00165859; CalBiochem, La Jolla, Calif.). The pH of the medium was adjusted to 7.0 with 1 N NaOH, sterile filtered using a 0.2 μm PES filter, and stored at 4° C. until used. All of the above media was prepared and stored according to guidelines from the Clinical and Laboratory Standards Institute (CLSI; 2-4). The broth microdilution assay method essentially followed the procedure described by CLSI (2-4) and employed automated liquid handlers to conduct serial dilutions and liquid transfers. Automated liquid handlers included the Multidrop 384 (Labsystems, Helsinki, Finland) and Biomek 2000 (Beckman Coulter, Fullerton Calif. The wells in columns 2-12 in standard 96-well microdilution plates (Costar 3795) were filled with 150 μl of the correct diluent. These would become the ‘mother plates’ from which ‘daughter’ or test plates would be prepared. The drugs (300 μL at 40× the desired top concentration in the test plates) were dispensed into the appropriate well in Column 1 of the mother plates. The Biomek 2000 was used to make serial two-fold dilutions through Column 11 in the “mother plate”. The wells of Column 12 contained no drug and were the organism growth control wells. The daughter plates were loaded with 185 μL per well of the appropriate test media using the Multidrop 384. The daughter plates were prepared using the Biomek FX which transferred 5 μL of drug solution from each well of a mother plate to the corresponding well of the correct daughter plate in a single step. A standardized inoculum of each organism was prepared per CLSI methods (2-4). For yeast isolates, colonies were picked from the primary plate and a suspension was prepared to equal a 0.5 McFarland turbidity standard. Suspensions were then diluted 1:100 in RPMI 1640 medium, resulting in a final inoculum concentration of 0.5-2.5×10^3 CFU/mL per test well. […] Standardized inoculum suspensions were transferred to compartments of sterile reservoirs divided by length (Beckman Coulter), and the Biomek 2000 was used to inoculate all plates. Daughter plates were placed on the Biomek 2000 in reverse orientation so that plates were inoculated from low to high drug concentration. The Biomek 2000 delivered 10 μL of standardized inoculum into each well of the appropriate daughter plate for an additional 1:20 dilution. Thus, the wells of the daughter plates ultimately contained 185 μL of the appropriate media, 5 μL of drug solution, and 10 μL of inoculum. The final concentration of DMSO (if used as a solvent) in the test well was 2.5%. Plates were stacked 3 high, covered with a lid on the top plate, placed into plastic bags, and incubated at 35° C. for approximately 24-48 hr for all yeast isolates, and 48 hr for all fungal isolates. Plates were viewed from the bottom using a plate viewer. […]

Candida tropicalis = assay: In vitro antifungal assay (broth microdilution, Micromyx), C. tropicalis; assay type: cell-based; settings: ATCC90874, strain 0636 ATCC 90874, 35° C., approximately 24-48 hr
Description: as §1

Aspergillus fumigatus = assay: In vitro antifungal assay (broth microdilution, Micromyx), A. fumigatus; assay type: cell-based; settings: 48 hr
Description: as §1

Human ACC2 = Human ACC2 (Homo sapiens, UniProt O00763); assay: In vitro ACC2 inhibition assay (ADP-Glo), human ACC2; assay type: biochemical; settings: 5 nM ACC2, 20 μM ATP, 20 μM acetyl-CoA
Sequence of Human ACC2 (O00763 whole entry): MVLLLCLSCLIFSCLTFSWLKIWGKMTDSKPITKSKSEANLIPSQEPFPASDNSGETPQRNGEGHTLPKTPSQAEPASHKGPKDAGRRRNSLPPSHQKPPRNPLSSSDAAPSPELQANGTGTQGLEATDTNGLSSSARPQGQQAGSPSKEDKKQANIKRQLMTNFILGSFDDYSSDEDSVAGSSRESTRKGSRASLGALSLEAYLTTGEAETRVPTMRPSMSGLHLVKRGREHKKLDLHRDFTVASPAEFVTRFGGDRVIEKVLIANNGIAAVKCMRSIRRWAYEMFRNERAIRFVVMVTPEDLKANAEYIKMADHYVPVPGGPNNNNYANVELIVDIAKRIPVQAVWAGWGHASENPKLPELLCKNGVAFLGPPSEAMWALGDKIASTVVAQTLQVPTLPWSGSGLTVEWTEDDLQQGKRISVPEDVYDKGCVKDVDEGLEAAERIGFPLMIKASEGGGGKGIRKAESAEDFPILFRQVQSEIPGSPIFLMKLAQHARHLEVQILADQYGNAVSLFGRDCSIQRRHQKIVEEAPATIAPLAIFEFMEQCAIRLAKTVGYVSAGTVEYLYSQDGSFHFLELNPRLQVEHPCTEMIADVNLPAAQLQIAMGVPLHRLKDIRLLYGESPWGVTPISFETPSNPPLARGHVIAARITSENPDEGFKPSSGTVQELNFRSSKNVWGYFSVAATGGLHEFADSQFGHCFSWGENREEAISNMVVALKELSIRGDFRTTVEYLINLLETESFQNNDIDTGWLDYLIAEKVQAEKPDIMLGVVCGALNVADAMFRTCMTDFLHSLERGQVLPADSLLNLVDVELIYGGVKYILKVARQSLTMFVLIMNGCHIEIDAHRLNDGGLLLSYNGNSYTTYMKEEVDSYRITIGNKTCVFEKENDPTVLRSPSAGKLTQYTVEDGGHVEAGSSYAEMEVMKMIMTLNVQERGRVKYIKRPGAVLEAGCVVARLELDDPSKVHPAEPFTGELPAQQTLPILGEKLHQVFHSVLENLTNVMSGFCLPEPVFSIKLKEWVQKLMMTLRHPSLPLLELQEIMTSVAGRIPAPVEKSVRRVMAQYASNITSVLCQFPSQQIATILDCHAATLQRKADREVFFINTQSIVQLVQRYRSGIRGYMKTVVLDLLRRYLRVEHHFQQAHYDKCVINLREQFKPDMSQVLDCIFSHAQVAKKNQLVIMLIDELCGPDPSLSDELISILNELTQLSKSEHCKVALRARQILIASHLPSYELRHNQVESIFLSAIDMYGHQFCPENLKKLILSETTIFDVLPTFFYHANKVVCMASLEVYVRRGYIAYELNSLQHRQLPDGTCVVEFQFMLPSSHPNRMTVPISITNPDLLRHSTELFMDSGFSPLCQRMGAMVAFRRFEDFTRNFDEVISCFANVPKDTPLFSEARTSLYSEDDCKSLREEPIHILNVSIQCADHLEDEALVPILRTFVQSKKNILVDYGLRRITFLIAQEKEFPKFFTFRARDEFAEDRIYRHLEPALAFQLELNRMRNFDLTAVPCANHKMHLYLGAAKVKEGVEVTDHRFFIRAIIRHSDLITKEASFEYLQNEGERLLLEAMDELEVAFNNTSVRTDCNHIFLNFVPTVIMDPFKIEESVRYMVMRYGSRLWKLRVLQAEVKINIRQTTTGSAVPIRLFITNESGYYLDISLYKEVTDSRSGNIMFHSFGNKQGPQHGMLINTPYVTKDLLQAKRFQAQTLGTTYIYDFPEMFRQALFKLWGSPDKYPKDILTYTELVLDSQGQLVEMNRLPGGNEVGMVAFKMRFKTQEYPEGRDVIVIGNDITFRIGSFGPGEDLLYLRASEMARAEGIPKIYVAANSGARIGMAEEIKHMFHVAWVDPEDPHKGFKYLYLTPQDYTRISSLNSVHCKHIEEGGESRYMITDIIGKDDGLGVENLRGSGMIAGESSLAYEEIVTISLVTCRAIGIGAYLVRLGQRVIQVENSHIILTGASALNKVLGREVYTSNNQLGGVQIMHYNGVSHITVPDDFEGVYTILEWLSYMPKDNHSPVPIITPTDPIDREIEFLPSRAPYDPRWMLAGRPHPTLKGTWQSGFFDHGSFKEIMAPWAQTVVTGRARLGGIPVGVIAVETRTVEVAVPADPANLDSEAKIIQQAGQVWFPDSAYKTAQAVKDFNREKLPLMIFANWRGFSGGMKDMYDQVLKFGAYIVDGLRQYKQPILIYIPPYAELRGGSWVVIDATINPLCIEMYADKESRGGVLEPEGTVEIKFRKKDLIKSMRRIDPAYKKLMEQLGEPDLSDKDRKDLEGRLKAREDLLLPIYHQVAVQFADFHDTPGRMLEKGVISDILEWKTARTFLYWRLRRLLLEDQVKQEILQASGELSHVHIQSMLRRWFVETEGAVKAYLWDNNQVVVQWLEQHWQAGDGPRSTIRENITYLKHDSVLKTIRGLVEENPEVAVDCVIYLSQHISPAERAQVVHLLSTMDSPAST

[1] = test system: C. parapsilosis ATCC 22019; assay: Anti-Fungal Activity Assay (broth microtiter MIC), C. parapsilosis; assay type: cell-based, Candida parapsilosis; settings: Lodderomyces parapsilosis, ATCC22019, 48 h, 3 replicates; MIC recorded at 48 h; read-out: MIC C. parapsilosis ATCC 22019
How it was run: (§2)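 MIC taken as visual growth inhibition versus the growth control, mostly at 48 h (soraphen also at 24 h). Following CLSI M27-A3, colonies grown overnight at 35° C on Sabouraud dextrose agar were suspended in RPMI 1640+MOPS; test agents came from 1 mg/mL DMSO stocks.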

C. krusei ATCC 6258 = assay: Anti-Fungal Activity Assay (broth microtiter MIC), C. krusei; assay type: cell-based, Candida krusei; settings: Pichia kudriavzevii, ATCC6258, 48 h, 3 replicates; MIC recorded at 48 h; read-out: MIC C. krusei ATCC 6258
How it was run: as §2

C. albicans ATCC 90028 = assay: Anti-Fungal Activity Assay (broth microtiter MIC), C. albicans; assay type: cell-based, Candida albicans; settings: Candida albicans, ATCC90028, 48 h, 3 replicates; MIC recorded at 48 h; read-out: MIC C. albicans ATCC 90028
How it was run: as §2

Fungal ACC2 = Fungal ACC2 (UniProt Q00955); settings: read-out: Fungal ACC2 (IC50, in vitro ACC2 inhibition)
Sequence of Fungal ACC2 (Q00955 whole entry): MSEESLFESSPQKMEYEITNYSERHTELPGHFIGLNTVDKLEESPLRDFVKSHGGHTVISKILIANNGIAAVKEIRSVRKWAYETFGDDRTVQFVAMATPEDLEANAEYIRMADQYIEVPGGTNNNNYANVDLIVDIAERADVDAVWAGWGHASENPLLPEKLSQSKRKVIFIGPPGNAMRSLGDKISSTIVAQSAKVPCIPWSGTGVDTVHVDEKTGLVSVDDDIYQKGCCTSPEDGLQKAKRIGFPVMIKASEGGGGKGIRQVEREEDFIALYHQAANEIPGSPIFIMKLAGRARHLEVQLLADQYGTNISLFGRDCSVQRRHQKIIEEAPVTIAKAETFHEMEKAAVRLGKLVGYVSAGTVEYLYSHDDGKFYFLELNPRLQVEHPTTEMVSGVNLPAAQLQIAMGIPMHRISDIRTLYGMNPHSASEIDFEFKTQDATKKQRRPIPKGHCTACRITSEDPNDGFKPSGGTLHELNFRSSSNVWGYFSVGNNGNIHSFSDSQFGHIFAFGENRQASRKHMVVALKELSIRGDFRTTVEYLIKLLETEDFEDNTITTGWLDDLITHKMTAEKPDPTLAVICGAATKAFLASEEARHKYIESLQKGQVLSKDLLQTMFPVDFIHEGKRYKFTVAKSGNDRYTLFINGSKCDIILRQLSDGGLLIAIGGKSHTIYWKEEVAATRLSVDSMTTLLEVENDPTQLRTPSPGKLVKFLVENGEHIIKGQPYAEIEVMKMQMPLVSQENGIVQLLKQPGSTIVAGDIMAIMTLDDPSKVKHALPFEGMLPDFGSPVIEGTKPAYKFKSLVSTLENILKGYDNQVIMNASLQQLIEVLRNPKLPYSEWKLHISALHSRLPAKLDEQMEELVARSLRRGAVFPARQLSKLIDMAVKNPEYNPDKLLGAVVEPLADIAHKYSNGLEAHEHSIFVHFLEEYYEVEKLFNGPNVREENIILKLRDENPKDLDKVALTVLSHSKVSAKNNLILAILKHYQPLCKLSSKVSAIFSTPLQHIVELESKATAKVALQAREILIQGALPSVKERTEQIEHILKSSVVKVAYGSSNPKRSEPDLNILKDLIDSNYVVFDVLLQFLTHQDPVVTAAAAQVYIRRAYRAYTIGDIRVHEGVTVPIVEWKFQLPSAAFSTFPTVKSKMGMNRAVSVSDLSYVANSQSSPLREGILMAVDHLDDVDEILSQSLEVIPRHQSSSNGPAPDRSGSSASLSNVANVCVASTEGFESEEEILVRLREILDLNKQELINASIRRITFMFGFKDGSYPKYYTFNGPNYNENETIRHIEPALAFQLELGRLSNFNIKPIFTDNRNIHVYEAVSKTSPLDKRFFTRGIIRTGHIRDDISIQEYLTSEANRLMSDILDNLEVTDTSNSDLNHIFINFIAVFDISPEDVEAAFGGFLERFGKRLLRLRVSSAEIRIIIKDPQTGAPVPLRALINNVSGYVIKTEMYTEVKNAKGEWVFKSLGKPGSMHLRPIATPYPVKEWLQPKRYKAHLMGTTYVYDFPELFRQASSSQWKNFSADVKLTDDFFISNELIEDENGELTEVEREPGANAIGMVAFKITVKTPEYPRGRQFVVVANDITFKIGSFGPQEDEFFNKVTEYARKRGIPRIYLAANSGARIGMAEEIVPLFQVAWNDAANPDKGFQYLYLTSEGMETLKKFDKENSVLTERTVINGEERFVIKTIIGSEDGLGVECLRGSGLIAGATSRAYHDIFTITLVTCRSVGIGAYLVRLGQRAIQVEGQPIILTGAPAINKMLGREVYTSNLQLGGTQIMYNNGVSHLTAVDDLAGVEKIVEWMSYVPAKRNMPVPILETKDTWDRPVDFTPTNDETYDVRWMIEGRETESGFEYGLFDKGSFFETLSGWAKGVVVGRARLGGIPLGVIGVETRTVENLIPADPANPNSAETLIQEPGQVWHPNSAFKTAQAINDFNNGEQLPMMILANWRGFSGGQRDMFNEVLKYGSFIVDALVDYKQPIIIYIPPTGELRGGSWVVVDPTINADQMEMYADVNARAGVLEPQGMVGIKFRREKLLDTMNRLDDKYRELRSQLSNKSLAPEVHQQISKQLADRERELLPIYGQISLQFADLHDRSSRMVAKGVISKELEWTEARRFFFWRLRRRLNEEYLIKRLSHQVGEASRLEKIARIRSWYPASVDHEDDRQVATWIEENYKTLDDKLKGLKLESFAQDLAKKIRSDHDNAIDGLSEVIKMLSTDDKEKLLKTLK

[2] = strain 5280 ATCC MYA-3626, 35° C., read-out: MIC, A. fumigatus 5280 ATCC MYA-3626
[3] = strain 6781 ATCC MYA-4609, 35° C., read-out: MIC, A. fumigatus 6781 ATCC MYA-4609

| SMILES | IC50 (ACC2) [nM] | IC50 (ACC1) [nM] | MIC (Candida glabrata) [µg/mL] | MIC (Candida tropicalis) [µg/mL] | MIC (Aspergillus fumigatus; [2]) [µg/mL] | MIC (Aspergillus fumigatus; [3]) [µg/mL] | IC50 (Human ACC2) [nM] | MIC [1] [µg/mL] | MIC (C. krusei ATCC 6258) [µg/mL] | MIC (C. albicans ATCC 90028) [µg/mL] | IC50 (Fungal ACC2) [nM] |
| --- | --- | --- | --- | --- | --- | --- | --- | --- | --- | --- | --- |
| O=C(c1c2ccccc2cc2ccccc12)N1CCC(N2CCC[C@@H](C(=O)N3CCOCC3)C2)CC1 [CP-640186] | ~60 | ~60 |  |  |  |  |  |  |  |  |  |
| CCN1CCC(n2c(=O)c3c(C)c(-n4nccn4)sc3n(C[C@H](OC3CCOCC3)c3cc(F)ccc3OC)c2=O)C1=O (stereo partly drawn) [Compound I-11, 3-(1-ethyl-2-oxopyrrolidin-3-yl)-1-((R)-2-(5-fluoro-2-methoxyphenyl)-2-((tetrahydro-2H-pyran-4-yl)oxy)ethyl)-5-methyl-6-(2H-1,2,3-triazol-2-yl)thieno[2,3-d]pyrimidine-2,4(1H,3H)-dione] |  |  | > 4.1 | 0.25 to 1 (≈ 0.408 to 1.63 µM) | 0.25 to 1 (≈ 0.408 to 1.63 µM) | 0.25 to 1 (≈ 0.408 to 1.63 µM) | 2 to 10 |  |  |  |  |
| COc1ccc(F)cc1[C@H](Cn1c(=O)n(C2CCN(C(C)C)C2=O)c(=O)c2c(C)c(-n3nccn3)sc21)OC1CCOCC1 (stereo partly drawn) [Compound I-12, 1-((R)-2-(5-fluoro-2-methoxyphenyl)-2-((tetrahydro-2H-pyran-4-yl)oxy)ethyl)-3-(1-isopropyl-2-oxopyrrolidin-3-yl)-5-methyl-6-(2H-1,2,3-triazol-2-yl)thieno[2,3-d]pyrimidine-2,4(1H,3H)-dione] |  |  | > 4.1 | 0.25 to 1 (≈ 0.399 to 1.6 µM) | 0.25 to 1 (≈ 0.399 to 1.6 µM) | 0.25 to 1 (≈ 0.399 to 1.6 µM) | 2 to 10 | 0.25 to 1 (≈ 0.399 to 1.6 µM) | 0.25 to 1 (≈ 0.399 to 1.6 µM) | 0.25 to 1 (≈ 0.399 to 1.6 µM) |  |
| COc1ccc(F)cc1[C@H](Cn1c(=O)n([C@@H]2CCNC2=O)c(=O)c2c(C)c(-n3nccn3)sc21)OC1CCOCC1 [Compound I-34, 1-((R)-2-(5-fluoro-2-methoxyphenyl)-2-((tetrahydro-2H-pyran-4-yl)oxy)ethyl)-5-methyl-3-((R)-2-oxopyrrolidin-3-yl)-6-(2H-1,2,3-triazol-2-yl)thieno[2,3-d]pyrimidine-2,4(1H,3H)-dione] |  |  | > 4.1 | 0.25 to 1 (≈ 0.428 to 1.71 µM) | 1.1 to 2 (≈ 1.88 to 3.42 µM) | 1.1 to 2 (≈ 1.88 to 3.42 µM) | 2 to 10 | 0.25 to 1 (≈ 0.428 to 1.71 µM) | 0.25 to 1 (≈ 0.428 to 1.71 µM) | 0.25 to 1 (≈ 0.428 to 1.71 µM) |  |
| COc1ccc(F)cc1[C@H](Cn1c(=O)n([C@@H]2CCN(C)C2=O)c(=O)c2c(C)c(-n3nccn3)sc21)OC1CCOCC1 [Compound I-36, 1-((R)-2-(5-fluoro-2-methoxyphenyl)-2-((tetrahydro-2H-pyran-4-yl)oxy)ethyl)-5-methyl-3-((R)-1-methyl-2-oxopyrrolidin-3-yl)-6-(2H-1,2,3-triazol-2-yl)thieno[2,3-d]pyrimidine-2,4(1H,3H)-dione] |  |  | > 4.1 | 0.25 to 1 (≈ 0.418 to 1.67 µM) | 0.25 to 1 (≈ 0.418 to 1.67 µM) | 0.25 to 1 (≈ 0.418 to 1.67 µM) | 2 to 10 | 0.25 to 1 (≈ 0.418 to 1.67 µM) | 0.25 to 1 (≈ 0.418 to 1.67 µM) | 0.25 to 1 (≈ 0.418 to 1.67 µM) | 2 to 10 |
| COc1ccc(F)cc1[C@H](Cn1c(=O)n([C@H]2CCCNC2=O)c(=O)c2c(C)c(-n3nccn3)sc21)OC1CCOCC1 [Compound I-37, 1-((R)-2-(5-fluoro-2-methoxyphenyl)-2-((tetrahydro-2H-pyran-4-yl)oxy)ethyl)-5-methyl-3-((S)-2-oxopiperidin-3-yl)-6-(2H-1,2,3-triazol-2-yl)thieno[2,3-d]pyrimidine-2,4(1H,3H)-dione] |  |  | > 4.1 | 0.25 to 1 (≈ 0.418 to 1.67 µM) | 1.1 to 2 (≈ 1.84 to 3.34 µM) | 1.1 to 2 (≈ 1.84 to 3.34 µM) | 2 to 10 | 0.25 to 1 (≈ 0.418 to 1.67 µM) | 0.25 to 1 (≈ 0.418 to 1.67 µM) | 0.25 to 1 (≈ 0.418 to 1.67 µM) |  |
| COc1ccc(F)cc1[C@H](Cn1c(=O)n([C@H]2CCCN(C)C2=O)c(=O)c2c(C)c(-n3nccn3)sc21)OC1CCOCC1 [Compound I-39, 1-((R)-2-(5-fluoro-2-methoxyphenyl)-2-((tetrahydro-2H-pyran-4-yl)oxy)ethyl)-5-methyl-3-((S)-1-methyl-2-oxopiperidin-3-yl)-6-(2H-1,2,3-triazol-2-yl)thieno[2,3-d]pyrimidine-2,4(1H,3H)-dione] |  |  | > 4.1 | 0.25 to 1 (≈ 0.408 to 1.63 µM) | 1.1 to 2 (≈ 1.8 to 3.26 µM) | 1.1 to 2 (≈ 1.8 to 3.26 µM) | 2 to 10 | 0.25 to 1 (≈ 0.408 to 1.63 µM) | 0.25 to 1 (≈ 0.408 to 1.63 µM) | 0.25 to 1 (≈ 0.408 to 1.63 µM) | 0.7 to 2 |
